Literature values as cited in patent publication US8530651B2, “Process for the preparation of anagrelide and analogues” (Shire LLC, priority 2008, dated 2013).
Like-named read-outs stand apart in the source and are kept apart here.

Legend:
[1] = humans; radiolabeled base
[2] = solid
[3] = monkeys; radiolabeled base

absorption into blood plasma [1]: complete absorption
aqueous solubility [2]: low aqueous solubility
absorption into blood plasma [3]: complete absorption
Compound: O=C1CN2Cc3c(ccc(Cl)c3Cl)N=C2N1 [anagrelide base, 6,7-dichloro-1,5-dihydroimidazo[2,1-b]quinazolin-2 (3H)-one]
